Laboratory results taken from EP0120613A1, “Penem derivatives and precursors” (BEECHAM GROUP PLC, priority 1983, dated 1984).
One block for each compound: values may come before it.

What was measured:
[1] = tested on: Staphylococci Russell; assay: Antibacterial activity of alkylidene-penems (MIC); assay type: cell-based; settings: compound alone
[2] = tested on: range of resistant strains; assay: MIC of Example 1b alone, microtitre technique (Table 3); assay type: cell-based; settings: Ex 1b alone; strains of Table 3
[3] = tested on: Staphylococci Oxford; assay: Antibacterial activity of alkylidene-penems (MIC); assay type: cell-based; settings: compound alone
[4] = tested on: Kleb aerogenes; assay: Effect of alkylidene-penems on the MIC of amoxycillin; assay type: cell-based, Klebsiella aerogenes; settings: Amoxycillin alone
[5] = tested on: E. coli JT39 (RTEM); assay: as above; assay type: cell-based; settings: Amoxycillin alone
[6] = tested on: S Aureus Russell; assay: as above; assay type: cell-based; settings: Amoxycillin alone
[7] = tested on: M.morganii 978; assay: MIC of broad spectrum cephalosporins with Example 1b, microtitre technique; assay type: cell-based
[8] = tested on: E.cloacae V692/80; assay: as above; assay type: cell-based
[9] = tested on: E.aerogenes 55; assay: as above; assay type: cell-based
[10] = tested on: E.cloacae 159/167; assay: as above; assay type: cell-based
[11] = tested on: E.aerogenes 53; assay: as above; assay type: cell-based
[12] = tested on: E.cloacae Dokt 5; assay: as above; assay type: cell-based
[13] = tested on: C.freundii T1739; assay: as above; assay type: cell-based
[14] = tested on: Ps.aeruginosa Badia IR; assay: as above; assay type: cell-based
[15] = tested on: C.freundii 423; assay: as above; assay type: cell-based
[16] = tested on: E.cloacae 4508; assay: as above; assay type: cell-based
[17] = tested on: E.aerogenes P99; assay: as above; assay type: cell-based
[18] = tested on: Ps.aeruginosa Charlier; assay: as above; assay type: cell-based
[19] = tested on: S.marcescens HCN 3956; assay: as above; assay type: cell-based
[20] = tested on: E.cloacae P383; assay: as above; assay type: cell-based
[21] = tested on: C.freundii T562; assay: as above; assay type: cell-based
[22] = tested on: S.marcescens V697; assay: as above; assay type: cell-based
[23] = tested on: E.coli JT410; assay: Effect of alkylidene-penems on the MIC of cephaloridine; assay type: cell-based; settings: Cephaloridine alone

Structure (SMILES): O=C(O)C1=CSC2/C(=C\c3ccco3)C(=O)N12 (racemic) [Example 1b, (5 RS) Sodium (Z) -6- Furfurylidenepenem - 3 - carboxylate]
MIC [1]: 16.0 µg/mL | MIC [2]: > 80 µg/mL | MIC [3]: 16.0 µg/mL

MIC [1]: 10.0 µg/mL | MIC [3]: 5.0 µg/mL
Structure (SMILES): CCSC1=C(C(=O)O)N2C(=O)/C(=C/c3ccco3)C2S1 (racemic) [Example 2b, (5RS) Sodium 2-Eth^ylthio - (Z)-6-furfurylidenepenem-3-carboxylate]

MIC [1]: 12.5 µg/mL | MIC [3]: 12.5 µg/mL
Structure (SMILES): O=C(O)C1=C(SCCO)SC2/C(=C\c3ccco3)C(=O)N12 (racemic) [Example 3b, (5RS) Sodium (Z)-6-Furfurylidene-2-(2-hydroxyethylthio) penem-3-carboxylate]

Structure (SMILES): CCSC1=C(C(=O)O)N2C(=O)/C(=C/c3ccc(COC(C)=O)o3)C2S1 (racemic) [Example 5b, (SRS) Sodium (z)-6-(5-Acetoxymethylfurfurylidene)-2-ethylthiopenem-3-carboxylate]
MIC [1]: 12.5 µg/mL | MIC [3]: 3.1 µg/mL

MIC [1]: 50 µg/mL | MIC [3]: 100 µg/mL
Structure (SMILES): O=C(O)C1=CSC2/C(=C\c3cccs3)C(=O)N12 (racemic) [Example 7b, (5RS) Sodium (Z)-6-(2-thienyl)methylenepenem-3-carboxylate]

MIC [1]: 12.5 µg/mL | MIC [3]: 50 µg/mL
Structure (SMILES): O=C(O)C1=CSC2/C(=C\c3ccsc3)C(=O)N12 (racemic) [Example 8b, (5RS) Sodium (Z)-6-(3-thienyl)methylenepenem-3-carboxylate]

MIC [1]: 125 µg/mL | MIC [3]: 62 µg/mL
Structure (SMILES): O=C(O)C1=CSC2/C(=C/c3ccco3)C(=O)N12 (racemic) [Example 9b, (5RS) Sodium (E)-6-Furfurylidenepenem-3-carboxylate]

MIC [1]: 50 µg/mL | MIC [3]: 50 µg/mL
Structure (SMILES): O=C(O)C1=CSC2/C(=C\c3ccc(Br)o3)C(=O)N12 (racemic) [Example 11b, (5RS) Sodium (Z)-6-(5-Bromofurfurylidene)penem-3-carboxylate]

MIC [1]: 50 µg/mL | MIC [3]: 100 µg/mL
Structure (SMILES): O=C(O)C1=CSC2/C(=C/c3ccoc3)C(=O)N12 (racemic) [Example 12b, (5RS) Sodium (E)-6-(3-Furylmethylene)penem-3-carboxylate]

Structure (SMILES): CC1(C)S[C@@H]2[C@H](NC(=O)[C@H](N)c3ccc(O)cc3)C(=O)N2[C@H]1C(=O)O [Amoxycillin]
MIC (µg/ml) of antibiotic [4]: 500 µg/mL | MIC (µg/ml) of antibiotic [5]: 2000 µg/mL | MIC (µg/ml) of antibiotic [6]: 500 µg/mL

MIC Cephalosporin ([7]; Cefotaxime alone): >80 µg/mL | MIC Cephalosporin ([8]; Cefotaxime alone): >80 µg/mL | MIC Cephalosporin ([9]; Cefotaxime alone): 80 µg/mL | MIC Cephalosporin ([10]; Cefotaxime alone): >80 µg/mL | MIC Cephalosporin ([11]; Cefotaxime alone): >80 µg/mL | MIC Cephalosporin ([12]; Cefotaxime alone): >80 µg/mL | MIC Cephalosporin ([13]; Cefotaxime alone): 40 µg/mL | MIC Cephalosporin ([14]; Cefotaxime alone): >80 µg/mL | MIC Cephalosporin ([15]; Cefotaxime alone): 40 µg/mL | MIC Cephalosporin ([16]; Cefotaxime alone): >80 µg/mL | MIC Cephalosporin ([17]; Cefotaxime alone): >80 µg/mL | MIC Cephalosporin ([18]; Cefotaxime alone): >80 µg/mL | MIC Cephalosporin ([19]; Cefotaxime alone): 80 µg/mL | MIC Cephalosporin ([20]; Cefotaxime alone): >80 µg/mL | MIC Cephalosporin ([21]; Cefotaxime alone): 40 µg/mL | MIC Cephalosporin ([22]; Cefotaxime alone): >80 µg/mL
Structure (SMILES): CO/N=C(\C(=O)N[C@@H]1C(=O)N2C(C(=O)O)=C(COC(C)=O)CS[C@H]12)c1csc(N)n1 [Cefotaxime]

Structure (SMILES): CC(C)(O/N=C(\C(=O)N[C@@H]1C(=O)N2C(C(=O)[O-])=C(C[n+]3ccccc3)CS[C@H]12)c1csc(N)n1)C(=O)O [Ceftazidine]
MIC Cephalosporin ([7]; Ceftazidine alone): 2.5 µg/mL | MIC Cephalosporin ([8]; Ceftazidine alone): >80 µg/mL | MIC Cephalosporin ([9]; Ceftazidine alone): 80 µg/mL | MIC Cephalosporin ([10]; Ceftazidine alone): >80 µg/mL | MIC Cephalosporin ([11]; Ceftazidine alone): >80 µg/mL | MIC Cephalosporin ([12]; Ceftazidine alone): >80 µg/mL | MIC Cephalosporin ([13]; Ceftazidine alone): 80 µg/mL | MIC Cephalosporin ([14]; Ceftazidine alone): >80 µg/mL | MIC Cephalosporin ([15]; Ceftazidine alone): 80 µg/mL | MIC Cephalosporin ([16]; Ceftazidine alone): >80 µg/mL | MIC Cephalosporin ([17]; Ceftazidine alone): 80 µg/mL | MIC Cephalosporin ([18]; Ceftazidine alone): 80 µg/mL | MIC Cephalosporin ([19]; Ceftazidine alone): 5 µg/mL | MIC Cephalosporin ([20]; Ceftazidine alone): >80 µg/mL | MIC Cephalosporin ([21]; Ceftazidine alone): 80 µg/mL | MIC Cephalosporin ([22]; Ceftazidine alone): 80 µg/mL

Structure (SMILES): O=C(Cc1cccs1)N[C@@H]1C(=O)N2C(C(=O)[O-])=C(C[n+]3ccccc3)CS[C@H]12 [Cephaloridine]
MIC (µg/ml) of antibiotic [23]: 62 to 125 µg/mL
